This is an account of results in patent US20120003661A1, “METHODS AND DEVICES FOR THE SELECTIVE DETECTION OF MICROORGANISMS” (C3 JIAN, INC., priority 2010, published 2012).

“Also recorded” adds a separate entry of the source.

For this experiment, the system named is bacteria, fungi, and/or yeasts. Type of experiment: binding. The conditions noted are these: microorganism(s) the targeting peptide binds, as listed in Table 2.
Take 1T-147 (GVENRRFYERDVSKVSMMTSEAVAPRGGSK): the “Target(s)” value was “A. naeslundii, F. nucleatum, P. gingivalis,; also recorded: T. denticola, S. gordonii,; also recorded: S. mitis, S. mutans, S. oralis,; also recorded: S. salivarious, S. sanguinis”. With 1T-148 (IVELDDTTILERALSMLGEANA), the “Target(s)” value was “A. naeslundii, F. nucleatum, P. gingivalis,; also recorded: T. denticola, S. gordonii,; also recorded: S. mitis, S. mutans, S. oralis,; also recorded: S. salivarious, S. sanguinis”. The result for 1T-149 (SVRAVKPIDETVARHFPGDFIVN) reads “A. naeslundii, F. nucleatum, P. gingivalis,; also recorded: T. denticola, S. gordonii,; also recorded: S. mitis, S. mutans, S. oralis,; also recorded: S. salivarious, S. sanguinis”; that for “1T-150 (YINRRLKKAFSDADIKEAPAEFYEELRRVQYV)”, “A. naeslundii, F. nucleatum, P. gingivalis,; also recorded: T. denticola, S. gordonii,; also recorded: S. mitis, S. mutans, S. oralis,; also recorded: S. salivarious, S. sanguinis”. Next, 1T-151 (SVRAVKPIDEIVAWHFPGDFIVN): “A. naeslundii, F. nucleatum, P. gingivalis,; also recorded: T. denticola, S. gordonii,; also recorded: S. mitis, S. mutans, S. oralis,; also recorded: S. salivarious, S. sanguinis”; 1T-152 (YVSADESAYNHIVTDDIPLADRRIEAVQQ): “A. naeslundii, F. nucleatum, P. gingivalis,; also recorded: S. epidermidis, S. gordonii,; also recorded: S. mitis, S. mutans, S. oralis,; also recorded: S. salivarious, S. sanguinis”.

In the case of 1T-153 (YIACPGYFY), the “Target(s)” value is reported as “A. naeslundii, F. nucleatum, P. gingivalis,; also recorded: S. epidermidis, S. gordonii,; also recorded: S. mitis, S. mutans, S. oralis,; also recorded: S. salivarious, S. sanguinis”.

As to 1T-154 (YFSFLEIVGMARR), the “Target(s)” value is “P. gingivalis”.

Consider 1T-155 (LKLAFGVYPFQAMSQSDTAVSERNVLWR), for which the “Target(s)” value is “A. naeslundii, F. nucleatum, P. gingivalis,; also recorded: S. epidermidis, S. gordonii,; also recorded: S. mitis, S. mutans, S. oralis,; also recorded: S. salivarious, S. sanguinis”. Take 1T-156 (GRFQISIRGEEKSKVKVQGKGTFTDRNTT): the “Target(s)” value is on record as “A. naeslundii, F. nucleatum, P. gingivalis,; also recorded: T. denticola, S. gordonii,; also recorded: S. mitis, S. mutans, S. oralis,; also recorded: S. salivarious, S. sanguinis”. For the substance 1T-157 (RRFRKTTENREKSKNKKAVLGLSTTSTASY), the “Target(s)” value is recorded as “A. naeslundii, F. nucleatum, P. gingivalis,; also recorded: T. denticola, S. gordonii,; also recorded: S. mitis, S. mutans, S. oralis,; also recorded: S. salivarious, S. sanguinis”.

Regarding 1T-158 (WENKPSPLGSIKKLQGLVYRLIGYRHFWV), the “Target(s)” value was “A. naeslundii, F. nucleatum, P. gingivalis,; also recorded: S. epidermidis, S. gordonii,; also recorded: S. mitis, S. mutans, S. oralis,; also recorded: S. salivarious, S. sanguinis”. The result for 1T-159 (IFSLHHFALICSEMGTFAVSKRAKYKWEVL) reads “P. gingivalis”; that for 1T-160 (AQYKYINKLLN), “A. naeslundii, F. nucleatum, P. gingivalis,; also recorded: T. denticola, S. gordonii,; also recorded: S. mitis, S. mutans, S. oralis,; also recorded: S. salivarious, S. sanguinis”; that for 1T-161 (NKVLQVEVMWDGSVVGRPAGVISIKSSKKG), “A. naeslundii, F. nucleatum, P. gingivalis,; also recorded: S. epidermidis, S. gordonii,; also recorded: S. mitis, S. mutans, S. oralis,; also recorded: S. salivarious, S. sanguinis”.

With 1T-162 (QKAKEESDRKAAVSYNGFHRVNVVSIPK), the “Target(s)” value is given as “A. naeslundii, F. nucleatum, P. gingivalis,; also recorded: T. denticola, S. gordonii,; also recorded: S. mitis, S. mutans, S. oralis,; also recorded: S. salivarious, S. sanguinis”. Consider “1T-163 (MENILIYIPMVLSPFGSGILLFLGKDRRYML)”, for which the “Target(s)” value is recorded as “A. naeslundii, F. nucleatum, P. gingivalis,; also recorded: S. epidermidis, S. gordonii,; also recorded: S. mitis, S. mutans, S. oralis,; also recorded: S. salivarious, S. sanguinis”. Consider 1T-164 (KKSHSQGKRKLKDLNSAYKIDNQLHYALR), for which the “Target(s)” value is on record as “A. naeslundii, F. nucleatum, P. gingivalis,; also recorded: S. epidermidis, S. gordonii,; also recorded: S. mitis, S. mutans, S. oralis,; also recorded: S. salivarious, S. sanguinis”. Next, 1T-165 (CYDSFDFSIFVTFANRMKLSVGS): “A. naeslundii, F. nucleatum, P. gingivalis,; also recorded: S. epidermidis, S. gordonii,; also recorded: S. mitis, S. mutans, S. oralis,; also recorded: S. salivarious, S. sanguinis”. For 1T-166 (AQSAGQIKRKSKVRIHV), the “Target(s)” value is recorded as “A. naeslundii, F. nucleatum, P. gingivalis,; also recorded: S. epidermidis, S. gordonii,; also recorded: S. mitis, S. mutans, S. oralis,; also recorded: S. salivarious, S. sanguinis”. The result for “1T-167 (SRMSEHSPAGLVFEVGPMDKGSFIILDSYHPTVKK)” reads “A. naeslundii, F. nucleatum, P. gingivalis,; also recorded: S. epidermidis, S. gordonii,; also recorded: S. mitis, S. mutans, S. oralis,; also recorded: S. salivarious, S. sanguinis”; that for “1T-168 (ELHRIMSTEKIGAVTKMNFDTAPIMSILPIDIYPKEVGIGS)”, “A. naeslundii, F. nucleatum, P. gingivalis,; also recorded: S. epidermidis, S. gordonii,; also recorded: S. mitis, S. mutans, S. oralis,; also recorded: S. salivarious, S. sanguinis”. Next, “1T-169 (FARVRRLHQNRILTQPLTNLKYCLRQPIYSD)”: “A. naeslundii, F. nucleatum, P. gingivalis,; also recorded: S. epidermidis, S. gordonii,; also recorded: S. mitis, S. mutans, S. oralis,; also recorded: S. salivarious, S. sanguinis”. In the case of 1T-170 (AYGKVFSMDIMLSENDKLIVLRISHHSAWH), the “Target(s)” value is on record as “P. gingivalis”. Consider 1T-171 (SVRAVKPIDKTVARHFPGDFIVN), for which the “Target(s)” value is listed as “A. naeslundii, F. nucleatum, P. gingivalis,; also recorded: S. epidermidis, S. gordonii,; also recorded: S. mitis, S. mutans, S. oralis,; also recorded: S. salivarious, S. sanguinis”.

1T-172 (FEGLKNLLGDDII): the “Target(s)” value is given as “A. naeslundii, F. nucleatum, P. gingivalis,; also recorded: S. epidermidis, S. gordonii,; also recorded: S. mitis, S. mutans, S. oralis,; also recorded: S. salivarious, S. sanguinis”. Turning to 1T-173 (LFRKEDQEHVLL), the “Target(s)” value is on record as “A. naeslundii, F. nucleatum, P. gingivalis,; also recorded: S. gordonii, S. mitis,; also recorded: S. mutans, S. oralis, S. salivarious,; also recorded: S. sanguinis”. The result for 1T-174 (SGGSDTDGSSSGEPGSHSGDL) reads “A. naeslundii, F. nucleatum, P. gingivalis,; also recorded: T. denticola, S. gordonii,; also recorded: S. mitis, S. mutans, S. oralis,; also recorded: S. salivarious, S. sanguinis”; that for 1T-175 (GEPGSHSGDL), “A. naeslundii, F. nucleatum, P. gingivalis,; also recorded: S. epidermidis, S. gordonii,; also recorded: S. mitis, S. mutans, S. oralis,; also recorded: S. salivarious, S. sanguinis”; that for 1T-176 (PVGDIMSGFLRGANQPRFLLDHISFGS), “A. naeslundii, P. gingivalis, S. epidermidis,; also recorded: S. gordonii, S. mitis,; also recorded: S. mutans, S. oralis, S. salivarious,; also recorded: S. sanguinis”. The result for 1T-177 (GTNVPTQILGYSREERFDYEPAPEQR) reads “P. gingivalis, S. gordonii, S. mitis,; also recorded: S. mutans, S. oralis, S. salivarious,; also recorded: S. sanguinis”; that for 1T-178 (LLASHPERLSLGVFFVYRVLHLLLENT), “A. naeslundii, F. nucleatum, P. gingivalis,; also recorded: S. epidermidis, S. gordonii,; also recorded: S. mitis, S. mutans, S. oralis,; also recorded: S. salivarious, S. sanguinis”. 1T-179 (TCYPLIQRKTDRAYEA): the “Target(s)” value is on record as “A. naeslundii, F. nucleatum, P. gingivalis,; also recorded: T. denticola, S. gordonii,; also recorded: S. mitis, S. mutans, S. oralis,; also recorded: S. salivarious, S. sanguinis”. With 1T-180 (VVFGGGDRLV), the “Target(s)” value is recorded as “A. naeslundii, F. nucleatum, P. gingivalis,; also recorded: T. denticola, S. gordonii,; also recorded: S. mitis, S. mutans, S. oralis,; also recorded: S. salivarious, S. sanguinis”. Next, 1T-181 (YGKESDP): “A. naeslundii, F. nucleatum, P. gingivalis,; also recorded: T. denticola, S. gordonii,; also recorded: S. mitis, S. mutans, S. oralis,; also recorded: S. salivarious, S. sanguinis”; 1T-182 (LTASICRQWNDNSTPYQR): “A. naeslundii, F. nucleatum, P. gingivalis,; also recorded: T. denticola, S. gordonii,; also recorded: S. mitis, S. mutans, S. oralis,; also recorded: S. salivarious, S. sanguinis”. 1T-183 (PLRSFVAEKAEHAFRVVRIADFDFGHS): the “Target(s)” value is reported as “A. naeslundii, F. nucleatum, P. gingivalis,; also recorded: S. epidermidis, S. gordonii,; also recorded: S. mitis, S. mutans, S. oralis,; also recorded: S. salivarious, S. sanguinis”. Turning to 1T-184 (ALLVLNLLLMQFFFGKNM), the “Target(s)” value is reported as “A. naeslundii, F. nucleatum, P. gingivalis,; also recorded: T. denticola, S. gordonii,; also recorded: S. mitis, S. mutans, S. oralis,; also recorded: S. salivarious, S. sanguinis”.

Turning to 1T-185 (HYHFLLEFGFHKGDYLE), the “Target(s)” value is reported as “A. naeslundii, F. nucleatum, P. gingivalis,; also recorded: T. denticola, S. gordonii,; also recorded: S. mitis, S. mutans, S. oralis,; also recorded: S. salivarious, S. sanguinis”. Next, 1T-188 (HRKDVYKK): “S. sanguinis”; “1T-190 (IQIIVNAFVEKDKTGAVIEVLYASNNHEKVKAKYEELVAIS)”: “A. naeslundii, F. nucleatum, P. gingivalis,; also recorded: S. epidermidis, S. gordonii,; also recorded: S. mitis, S. mutans, S. oralis,; also recorded: S. salivarious, S. sanguinis”. In the case of 1T-192 (ILVLLALQVELDSKFQY), the “Target(s)” value is on record as “S. sanguinis”. Next, 1T-193 (LMIFDKHANLKYKYGNRSFGVEAIM): “S. sanguinis”.

1T-195 (AASGFTYCASNGVWHPY): the “Target(s)” value is “S. mutans”. Take “1T-196 (KPEKEKLDTNTLMKVVNKALSLFDRLLIKFGA)”: the “Target(s)” value is listed as “F. nucleatum, S. sanguinis”. In the case of “1T-197 (TEILNFLITVCADRENWKIKHGLSDSVLLIFFARFTGAEYW)”, the “Target(s)” value is “A. naeslundii, F. nucleatum, P. gingivalis,; also recorded: S. epidermidis, S. gordonii,; also recorded: S. mitis, S. mutans, S. oralis,; also recorded: S. salivarious, S. sanguinis”. The result for “1T-198 (MPVSKKRYMLSSAYATALGICYGQVATDEKESEITAIPDLLDYLSVEEYLL)” reads “P. gingivalis, S. epidermidis, S. gordonii,; also recorded: S. mitis, S. mutans, S. oralis,; also recorded: S. sanguinis”; that for 1T-199 (RAGRIKKLSQKEAEPFEN), “S. sanguinis”.
